{"source": "ChEMBL document CHEMBL4312022", "about": "“Design, synthesis, and biological evaluation of ligustrazine - betulin amino-acid/dipeptide derivatives as anti-tumor agents” (Eur J Med Chem, 2020)", "key": {"HepG2 [1]": {"test_system": "HepG2", "assay": "Induction of apoptosis in human HepG2 cells assessed as late apoptotic cells at 12 uM after 24 hrs by AnnexinV-FITC/PI-staining based flow cytometry (reference value: 4.5%)", "format": "functional"}, "[2]": {"assay": "Toxicity in zebrafish embryos assessed as malformation rate at 4 uM after 72 hrs (reference value: 0%)", "parameters": "species or system Danio rerio", "conditions": "in vivo"}, "[3]": {"assay": "Toxicity in zebrafish embryos assessed as spinal cord bending at 4 uM after 72 hrs", "parameters": "species or system Danio rerio", "conditions": "in vivo"}, "HepG2 [4]": {"test_system": "HepG2", "assay": "Induction of morphological changes in human HepG2 cells assessed as cell fragmentation at 8 uM after 72 hrs by giemsa staining based inverted microscopic analysis", "format": "functional"}, "HepG2 [5]": {"test_system": "HepG2", "assay": "Induction of cell cycle arrest in human HepG2 cells assessed as accumulation at G1 phase at 2 uM after 72 hrs by PI-staining based flow cytometry (reference value: 66.9%)", "format": "functional"}, "[6]": {"assay": "Selectivity index, ratio of IC50 for MDCK cells to IC50 for human HepG2 cells"}, "HepG2 [7]": {"test_system": "HepG2", "assay": "Induction of apoptosis in human HepG2 cells assessed as nuclear fragmentation at 2 to 8 uM after 72 hrs by DAPI-staining based fluorescence microscopic analysis", "format": "functional, cell-based"}, "HeLa": {"test_system": "HeLa", "assay": "Antiproliferative activity against human HeLa cells assessed as reduction in cell viability after 72 hrs by MTT assay", "format": "functional, cell-based"}, "HT-29": {"test_system": "HT-29", "assay": "Antiproliferative activity against human HT-29 cells assessed as reduction in cell viability after 72 hrs by MTT assay", "format": "functional, cell-based", "conditions": "HT-29, 72 h"}, "HepG2 [8]": {"test_system": "HepG2", "assay": "Antiproliferative activity against human HepG2 cells assessed as reduction in cell viability after 72 hrs by MTT assay", "format": "functional, cell-based", "conditions": "HepG2, 72 h"}, "HepG2 [9]": {"test_system": "HepG2", "assay": "Induction of apoptosis in human HepG2 cells assessed as early apoptotic cells at 8 uM after 24 hrs by AnnexinV-FITC/PI-staining based flow cytometry (reference value: 0.5%)", "format": "functional"}, "HepG2 [10]": {"test_system": "HepG2", "assay": "Induction of cell cycle arrest in human HepG2 cells assessed as accumulation at S phase at 2 uM after 72 hrs by PI-staining based flow cytometry (reference value: 13.9%)", "format": "functional"}, "HepG2 [11]": {"test_system": "HepG2", "assay": "Induction of cell cycle arrest in human HepG2 cells assessed as accumulation at G1 phase at 4 uM after 72 hrs by PI-staining based flow cytometry (reference value: 66.9%)", "format": "functional"}, "[12]": {"assay": "Toxicity in zebrafish embryos assessed as effect on morphological changes at 4 uM after 72 hrs", "parameters": "species or system Danio rerio", "conditions": "in vivo"}, "BGC-823": {"test_system": "BGC-823", "assay": "Antiproliferative activity against human BGC823 cells assessed as reduction in cell viability after 72 hrs by MTT assay", "format": "functional, cell-based", "conditions": "BGC-823, 72 h"}, "HepG2 [13]": {"test_system": "HepG2", "assay": "Induction of apoptosis in human HepG2 cells assessed as reduction in number of cells up to 8 uM after 72 hrs by DAPI-staining based fluorescence microscopic analysis", "format": "functional, cell-based"}, "MDCK": {"test_system": "MDCK", "assay": "Cytotoxicity against MDCK cells assessed as reduction in cell viability after 72 hrs by MTT assay", "format": "cell-based", "conditions": "Canis lupus familiaris"}, "[14]": {"assay": "Toxicity in zebrafish embryos assessed as body length at 4 uM after 72 hrs (reference value: 4165.80 +/- 64.98 micrometer)", "parameters": "species or system Danio rerio", "conditions": "in vivo"}, "HepG2 [15]": {"test_system": "HepG2", "assay": "Induction of apoptosis in human HepG2 cells assessed as concentrated chromatin at 2 to 8 uM after 72 hrs by DAPI-staining based fluorescence microscopic analysis", "format": "functional, cell-based"}, "HepG2 [16]": {"test_system": "HepG2", "assay": "Induction of cell cycle arrest in human HepG2 cells assessed as accumulation at G1 phase at 8 uM after 72 hrs by PI-staining based flow cytometry (reference value: 66.9%)", "format": "functional"}, "HepG2 [17]": {"test_system": "HepG2", "assay": "Induction of cell cycle arrest in human HepG2 cells assessed as accumulation at G2 phase at 8 uM after 72 hrs by PI-staining based flow cytometry (reference value: 19.2%)", "format": "functional"}, "HepG2 [18]": {"test_system": "HepG2", "assay": "Induction of apoptosis in human HepG2 cells assessed as late apoptotic cells at 8 uM after 24 hrs by AnnexinV-FITC/PI-staining based flow cytometry (reference value: 4.5%)", "format": "functional"}, "HepG2 [19]": {"test_system": "HepG2", "assay": "Induction of cell cycle arrest in human HepG2 cells assessed as accumulation at G2 phase at 2 uM after 72 hrs by PI-staining based flow cytometry (reference value: 19.2%)", "format": "functional"}, "HepG2 [20]": {"test_system": "HepG2", "assay": "Induction of morphological changes in human HepG2 cells assessed as cell pyknosis at 8 uM after 72 hrs by giemsa staining based inverted microscopic analysis", "format": "functional"}, "HepG2 [21]": {"test_system": "HepG2", "assay": "Induction of cell cycle arrest in human HepG2 cells assessed as accumulation at G2 phase at 4 uM after 72 hrs by PI-staining based flow cytometry (reference value: 19.2%)", "format": "functional"}, "HepG2 [22]": {"test_system": "HepG2", "assay": "Induction of apoptosis in human HepG2 cells assessed as increase in cell disruption up to 8 uM after 72 hrs by DAPI-staining based fluorescence microscopic analysis", "format": "functional"}, "[23]": {"assay": "Toxicity in zebrafish embryos assessed as mortality rate at 4 uM after 72 hrs (reference value: 3.33 +/- 4.71%)", "parameters": "species or system Danio rerio", "conditions": "in vivo"}, "HepG2 [24]": {"test_system": "HepG2", "assay": "Induction of apoptosis in human HepG2 cells assessed as late apoptotic cells at 4 uM after 24 hrs by AnnexinV-FITC/PI-staining based flow cytometry (reference value: 4.5%)", "format": "functional"}, "HepG2 [25]": {"test_system": "HepG2", "assay": "Induction of cell cycle arrest in human HepG2 cells assessed as accumulation at S phase at 8 uM after 72 hrs by PI-staining based flow cytometry (reference value: 13.9%)", "format": "functional"}, "HepG2 [26]": {"test_system": "HepG2", "assay": "Induction of apoptosis in human HepG2 cells assessed as early apoptotic cells at 12 uM after 24 hrs by AnnexinV-FITC/PI-staining based flow cytometry (reference value: 0.5%)", "format": "functional"}, "HepG2 [27]": {"test_system": "HepG2", "assay": "Induction of apoptosis in human HepG2 cells assessed as early apoptotic cells at 4 uM after 24 hrs by AnnexinV-FITC/PI-staining based flow cytometry (reference value: 0.5%)", "format": "functional"}, "HepG2 [28]": {"test_system": "HepG2", "assay": "Induction of apoptosis in human HepG2 cells assessed as reduction in number of normal cell morphology at 2 to 8 uM after 72 hrs by giemsa staining based inverted microscopic analysis", "format": "functional"}, "HepG2 [29]": {"test_system": "HepG2", "assay": "Induction of cell cycle arrest in human HepG2 cells assessed as accumulation at S phase at 4 uM after 72 hrs by PI-staining based flow cytometry (reference value: 13.9%)", "format": "functional"}}, "note": "The source made the active and inactive calls. The rule behind the calls is not given here.", "data": [{"molecule": "C=C(C)[C@@H]1CC[C@]2(COC(=O)c3nc(C)c(C)nc3C)CC[C@]3(C)[C@H](CC[C@@H]4[C@@]5(C)CC[C@H](OC(=O)CN)C(C)(C)[C@@H]5CC[C@]43C)[C@@H]12", "values": [{"measurement": "Activity", "setting": "HepG2 [1]", "value": 21.4, "unit": "%"}, {"measurement": "Activity", "setting": "[2]", "value": 0, "unit": "%"}, {"measurement": "Activity", "setting": "[3]", "value": "Non-Toxic"}, {"measurement": "Activity", "setting": "HepG2 [4]", "value": "Active"}, {"measurement": "Activity", "setting": "HepG2 [5]", "value": 76.8, "unit": "%"}, {"measurement": "Ratio IC50", "setting": "[6]", "value": 3.91}, {"measurement": "Activity", "setting": "HepG2 [7]", "value": "Active"}, {"measurement": "IC50", "setting": "HeLa", "value": 4.91, "unit": "µM"}, {"measurement": "IC50", "setting": "HT-29", "value": 6.21, "unit": "µM"}, {"measurement": "IC50", "setting": "HepG2 [8]", "value": 4.07, "unit": "µM"}, {"measurement": "Activity", "setting": "HepG2 [9]", "value": 14.2, "unit": "%"}, {"measurement": "Activity", "setting": "HepG2 [10]", "value": 7.3, "unit": "%"}, {"measurement": "Activity", "setting": "HepG2 [11]", "value": 79.6, "unit": "%"}, {"measurement": "Activity", "setting": "[12]", "value": "Non-Toxic"}, {"measurement": "IC50", "setting": "BGC-823", "value": 4.24, "unit": "µM"}, {"measurement": "Activity", "setting": "HepG2 [13]", "value": "Active"}, {"measurement": "IC50", "setting": "MDCK", "value": 16.1, "unit": "µM"}, {"measurement": "Activity", "setting": "[14]", "value": 4140.09, "unit": "um"}, {"measurement": "Activity", "setting": "HepG2 [15]", "value": "Active"}, {"measurement": "Activity", "setting": "HepG2 [16]", "value": 81.5, "unit": "%"}, {"measurement": "Activity", "setting": "HepG2 [17]", "value": 13.6, "unit": "%"}, {"measurement": "Activity", "setting": "HepG2 [18]", "value": 19.2, "unit": "%"}, {"measurement": "Activity", "setting": "HepG2 [19]", "value": 15.8, "unit": "%"}, {"measurement": "Activity", "setting": "HepG2 [20]", "value": "Active"}, {"measurement": "Activity", "setting": "HepG2 [21]", "value": 14.9, "unit": "%"}, {"measurement": "Activity", "setting": "HepG2 [22]", "value": "Active"}, {"measurement": "mortality at 72 h, 4 µM", "setting": "[23]", "value": 8.33, "unit": "%"}, {"measurement": "Activity", "setting": "HepG2 [24]", "value": 15.4, "unit": "%"}, {"measurement": "Activity", "setting": "HepG2 [25]", "value": 4.9, "unit": "%"}, {"measurement": "Activity", "setting": "HepG2 [26]", "value": 35.4, "unit": "%"}, {"measurement": "Activity", "setting": "HepG2 [27]", "value": 5.5, "unit": "%"}, {"measurement": "Activity", "setting": "HepG2 [28]", "value": "Active"}, {"measurement": "Activity", "setting": "HepG2 [29]", "value": 5.6, "unit": "%"}]}]}
